Results published in paper PMC4922569, “Antifibrotic Effects of the Dual CCR2/CCR5 Antagonist Cenicriviroc in Animal Models of Liver and Kidney Fibrosis” (PLoS ONE, 2016).
Counter-ions that a name gives are not always drawn.

Columns and labels:
CCR2 = conditions: cited from earlier work
diet-induced NASH = test: Mouse model of diet-induced NASH; assay type: in vivo; conditions: for NAS, mean (±SD): vehicle 5.3 (±0.5); for Liver hydroxyproline content: vehicle 0.75±0.18; for Percentage of inflammation area (F4/80+ area): vehicle 4.99±1.10; for M1/M2 ratio (F4/80+CD16/32+ / F4/80+CD206+): vehicle 99.6±20.2; for Reduction in modified fibrosis area (perivascular space subtracted) vs vehicle control / Reduction in percentage of fibrosis area vs vehicle control: p < 0.01; for Plasma CCL2 levels: vehicle 60±4
Procedure: NASH was induced in male C57BL/6 mice (Charles River Laboratories, Japan) via subcutaneous injection of 200 μg of streptozotocin 2 days post-birth (causing mild islet inflammation and islet destruction) plus a high-fat diet (57 kcal% fat) from 4 weeks of age (sequentially causing fatty changes to the liver, NASH and fibrosis). From Weeks 6 to 9, three groups (n = 9/group) received vehicle control, CVC20 or CVC100 BID PO (S1 Table). At Week 9, six animals per group were sacrificed for assessment of liver fibrosis and Non-Alcoholic Fatty Liver Disease (NAFLD) Activity Score (NAS). The animals were sacrificed by exsanguination through direct cardiac puncture under ether anesthesia. Study endpoints included: body and liver weights, plasma biochemistry (e.g. ALT and CCL2), extracellular matrix protein in liver tissue (hydroxyproline content), mRNA expression (collagen type 1, tumor necrosis factor-alpha, MCP-1, TIMP1) and histopathological analyses. Blood samples were collected and plasma samples derived for biochemistry assessments. Sections were cut from paraffin blocks of liver tissue, prefixed in Bouin’s solution and stained with H&E for histological examination.
In the TAA model, serum ALT/AST levels were measured using VITROS® 5,1 FS (Ortho Clinical Diagnostics, USA), with plasma diluted with VITROS® 7% bovine serum albumin if needed. In the NASH model, plasma ALT levels were measured by FUJI DRI-CHEM 7000 (Fujifilm, Japan) and plasma CCL2 concentration quantified by the mouse CCL2/JE/MCP-1 immunoassay kit (R&D, USA).
In the NASH model, bright field images of picrosirius red-stained sections were captured around the central vein using a digital camera (DFC280; Leica, Germany) at 200x magnification; the ‘positive’ areas in five fields/sections were measured using ImageJ software (National Institutes of Health, USA). Perivascular areas were subtracted from the total positive areas for each field (modified fibrosis area). The NAS, a histological tool developed to assess disease severity in humans, was assessed in a blinded fashion and calculated according to Kleiner’s criteria on H&E-stained sections. It is based on the semi-quantification of steatosis, lobular inflammation and hepatocellular ballooning.
In the NASH model, liver sections fixed in acetone were incubated with anti-F4/80 antibody (BMA Biomedicals, Switzerland) to assess inflammation. Double immunohistochemical analyses were performed with anti-CD206 (RayBiotec, USA) or anti-CD16/32 (BD Biosciences, USA) antibodies. Cells were counted and the M1/M2 polarization ratio was calculated as mean percentage of F4/80+CD16/32+ cells/mean percentage of F4/80+CD206+ cells.
In the NASH model, frozen liver samples were subjected to an alkaline-acid hydrolysis, then centrifuged, and the supernatant collected. Hydroxyproline content was quantified against a hydroxyproline standard curve, with a BCA protein assay kit (Thermo Fisher Scientific, USA) used to normalize the calculated hydroxyproline values.
In the hepatic-fibrosis models, RNA was extracted from liver tissues and purified, and 1 μg of total mRNA was reverse-transcribed into complementary DNA. Expression levels were determined by quantitative polymerase chain reaction (PCR) (iQ™ SYBR® Green Supermix [Bio-Rad Laboratories, USA] on the LightCycler® 480 Real-Time PCR System [Roche, Switzerland]) in the TAA model at Week 8 (early intervention and established fibrosis) and Week 12 (cirrhosis reversal), and by real-time PCR (PCR Dice® and SYBR® Premix Ex Taq™ [Takara Bio Inc., Japan]) at Week 9 in the NASH model.
Relative mRNA expression levels were normalized to the following reference genes: TAA model, GAPDH; NASH model, 36B4 (gene symbol: Rplp0); UUO model, hypoxanthine phosphoribosyltransferase.
In the NASH model, data are expressed as mean ±standard deviation (SD). Statistical analyses were performed using the Bonferroni multiple comparison test (GraphPad Prism® 4 software).

CCCCOCCOc1ccc(-c2ccc3c(c2)/C=C(/C(=O)Nc2ccc([S@@+]([O-])Cc4cncn4CCC)cc2)CCCN3CC(C)C)cc1 [CVC, cenicriviroc mesylate]
Occupancy for CCR2 (blood and spleen) in proinflammatory monocytes (CCR2; CVC 250 nM, murine cryopreserved PBMC ex vivo): > 90% | CCR2 occupancy (CCR2; CVC concentrations of 250 nmol/L or higher, mouse monocytes and macrophages ex vivo): > 87% | Hepatocyte ballooning score 0, number of animals (diet-induced NASH; CVC20, n = 6): 0 | Hepatocyte ballooning score 1, number of animals (diet-induced NASH; CVC20, n = 6): 3 | Hepatocyte ballooning score 2, number of animals (diet-induced NASH; CVC20, n = 6): 3 | Lobular inflammation score 0, number of animals (diet-induced NASH; CVC20, n = 6): 0 | Lobular inflammation score 1, number of animals (diet-induced NASH; CVC20, n = 6): 3 | Lobular inflammation score 2, number of animals (diet-induced NASH; CVC20, n = 6): 3 | Lobular inflammation score 3, number of animals (diet-induced NASH; CVC20, n = 6): 0 | Steatosis score 0, number of animals (diet-induced NASH; CVC20, n = 6): 0 | Steatosis score 1, number of animals (diet-induced NASH; CVC20, n = 6): 6 | Steatosis score 2, number of animals (diet-induced NASH; CVC20, n = 6): 0 | Steatosis score 3, number of animals (diet-induced NASH; CVC20, n = 6): 0 | NAS, mean (±SD) (diet-induced NASH; CVC20, n = 6, p = 0.0013): 4.0 (±0.6) | Reduction in collagen type 1 mRNA expression vs vehicle control (diet-induced NASH; CVC20, p < 0.05): 37% | Liver hydroxyproline content (diet-induced NASH; CVC20): 0.63 ± 0.05 µg/mg | Percentage of inflammation area (F4/80+ area) (diet-induced NASH; CVC20, not significant): 4.77±1.02% | M1/M2 ratio (F4/80+CD16/32+ / F4/80+CD206+) (diet-induced NASH; CVC20, not significant): 112.3±17.0% | Reduction in modified fibrosis area (perivascular space subtracted) vs vehicle control (diet-induced NASH; CVC20 BID PO Weeks 6-9): 52.5% | Reduction in percentage of fibrosis area vs vehicle control (diet-induced NASH; CVC20 BID PO Weeks 6-9): 40.0% | Plasma CCL2 levels (diet-induced NASH; CVC20 BID PO Weeks 6-9, not significant): 68 ± 16 pg/mL | Hepatocyte ballooning score 0, number of animals (diet-induced NASH; CVC100, n = 6): 1 | Hepatocyte ballooning score 1, number of animals (diet-induced NASH; CVC100, n = 6): 2 | Hepatocyte ballooning score 2, number of animals (diet-induced NASH; CVC100, n = 6): 3 | Lobular inflammation score 0, number of animals (diet-induced NASH; CVC100, n = 6): 0 | Lobular inflammation score 1, number of animals (diet-induced NASH; CVC100, n = 6): 3 | Lobular inflammation score 2, number of animals (diet-induced NASH; CVC100, n = 6): 3 | Lobular inflammation score 3, number of animals (diet-induced NASH; CVC100, n = 6): 0 | Steatosis score 0, number of animals (diet-induced NASH; CVC100, n = 6): 1 | Steatosis score 1, number of animals (diet-induced NASH; CVC100, n = 6): 5 | Steatosis score 2, number of animals (diet-induced NASH; CVC100, n = 6): 0 | Steatosis score 3, number of animals (diet-induced NASH; CVC100, n = 6): 0 | NAS, mean (±SD) (diet-induced NASH; CVC100, n = 6, p = 0.0009): 3.7 (±0.8) | Reduction in collagen type 1 mRNA expression vs vehicle control (diet-induced NASH; CVC100, not statistically significant): 27% | Liver hydroxyproline content (diet-induced NASH; CVC100): 0.62 ± 0.09 µg/mg | M1/M2 ratio (F4/80+CD16/32+ / F4/80+CD206+) (diet-induced NASH; CVC100, not significant): 125.1±21.9% | Reduction in modified fibrosis area (perivascular space subtracted) vs vehicle control (diet-induced NASH; CVC100 BID PO Weeks 6-9): 67.2% | Reduction in percentage of fibrosis area vs vehicle control (diet-induced NASH; CVC100 BID PO Weeks 6-9): 41.8% | Plasma CCL2 levels (diet-induced NASH; CVC100 BID PO Weeks 6-9, significant increase): 91 ± 14 pg/mL | Percentage of inflammation area (F4/80+ area) (diet-induced NASH; CVC-high, not significant): 4.96±0.60% | mRNA expression levels of the other fibrosis markers tested, vehicle control vs CVC groups (diet-induced NASH; NASH model, Week 9): no statistically significant differences | Plasma ALT levels vs vehicle control (diet-induced NASH; both CVC doses (CVC20, CVC100 BID PO Weeks 6-9), p < 0.05): significantly decreased
